target: T1, human sEH enzyme (Homo sapiens, UniProt P34913); experiment: sEH Human Enzyme Assay (fluorescence based enzyme in vitro assay); assay type: biochemical; conditions: recombinant full length human sEH about 1 nM, fluorescence substrate S7 10 uM, pH7.0, 25° C.; read-out: IC50 [nM] for human sEH enzyme inhibition
T1 construct: His-tag (N, cleaved yes); made in house; host or cells: E. coli (pET100 vector)
T1 sequence (P34913 1-555): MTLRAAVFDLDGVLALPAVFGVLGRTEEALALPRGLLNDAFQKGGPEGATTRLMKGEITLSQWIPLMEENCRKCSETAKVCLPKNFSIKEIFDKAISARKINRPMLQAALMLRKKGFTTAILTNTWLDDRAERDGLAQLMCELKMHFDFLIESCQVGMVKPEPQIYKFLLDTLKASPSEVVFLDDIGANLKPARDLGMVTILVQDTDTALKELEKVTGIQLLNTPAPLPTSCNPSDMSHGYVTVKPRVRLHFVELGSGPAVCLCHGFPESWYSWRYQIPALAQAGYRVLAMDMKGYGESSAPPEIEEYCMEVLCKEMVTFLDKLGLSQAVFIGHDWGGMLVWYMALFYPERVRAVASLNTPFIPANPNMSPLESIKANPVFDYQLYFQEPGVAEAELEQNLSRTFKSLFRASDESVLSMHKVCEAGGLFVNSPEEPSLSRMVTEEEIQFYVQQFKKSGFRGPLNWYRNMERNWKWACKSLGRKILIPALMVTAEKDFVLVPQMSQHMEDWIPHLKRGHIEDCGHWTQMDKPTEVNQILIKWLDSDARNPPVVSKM
Description: Preparation of Recombinant sEH Human Enzyme
The DNA for expressing sEH was designed based on a […] sEH cDNA, modified to optimize for expression both in E. coli and insect cells. The designed DNA fragment encodes a protein sequence that is identical to full length human sEH, and the DNA was synthesized in vitro. The DNA was then subcloned into the pET100 vector that will generate a fusion protein with an N-terminal His-tag. The recombinant protein was expressed in E. coli. The sEH enzyme was affinity purified by a Ni^++ column. His-tag was removed by Enter Kinase (EK) digestion. The purified enzyme aliquots were frozen and held at −80° C. for later use.
Fluorescence Based Enzyme In Vitro Assay,
For each assay (100 ul), an aliquot of enzymes (about 1 nM final concentration) was incubated with a fluorescence substrate, S7 (10 uM final concentration), in sEH assay buffer (25 mM HEPES, pH7.0, 0.1 mg/ml BSA) in a 96-well plate. The kinetic reaction reading (Ex330/Em465) was conducted using a plate reader, Spectra max (Molecular Devices) at 25° C.

| Structure (SMILES) | IC50 [nM] |
| --- | --- |
| Cc1noc(C2CC3CC2N(C(=O)Nc2ccc(C(F)(F)F)cc2)C3)n1 (stereo not shown) [Example 1] | 7 |
| Cc1noc(C2CC3CCC2N(C(=O)Nc2ccc(C(F)(F)F)cc2)C3)n1 (stereo not shown) [Example 2] | 2 |
| Cc1noc(C2(C)CC3CCC2N(C(=O)Nc2ccc(C(F)(F)F)cc2)C3)n1 (stereo not shown) [Example 3] | 2 |
| CC(c1ccccc1)c1noc(C2CC3CCC2N(C(=O)Nc2ccc(C(F)(F)F)cc2)C3)n1 (stereo not shown) [Example 4] | 8 |
| CCc1noc(C2CC3CCC(C2)N3C(=O)Nc2ccc(C(F)(F)F)cc2)n1 (stereo not shown) [Example 5] | 2 |
| CN(C)c1noc(C2CC3CCC2N(C(=O)Nc2ccc(C(F)(F)F)cc2)C3)n1 (stereo not shown) [Example 6] | 1 |
| CCOc1noc(C2CC3CCC2N(C(=O)Nc2ccc(C(F)(F)F)cc2)C3)n1 (stereo not shown) [Example 7] | 2 |
| O=C(Nc1ccc(C(F)(F)F)cc1)N1CC2(c3ccccc3)CCC1CC2 [Example 9] | 1 |
| O=C(Nc1ccc(Cl)cc1)N1CC2(c3ccccc3)CCC1C2 (stereo not shown) [Example 10] | 1 |
| O=C(Nc1ccc(C(F)(F)F)cc1)N1C2CCC1C(c1cccnc1)C2 (stereo not shown) [Example 11] | 11 |
| O=C(Nc1ccc(C(F)(F)F)cc1)N1C2CCC1C(c1cccnc1)C2 (stereo not shown) [Example 12] | 41 |
| CN(C)c1noc(C2CC3CCC2N(C(=O)NC2CC2c2ccccc2)C3)n1 (stereo not shown) [Example 13] | 51 |
| O=C(NC1CC1c1ccccc1)N1CC2CCC1C(c1nc(C3CC3)no1)C2 (stereo not shown) [Example 14] | 18 |
| CCOc1noc(C2CC3CCC2N(C(=O)NC2CC2c2ccccc2)C3)n1 (stereo not shown) [Example 15] | 14 |
| Cc1noc(C2(C)CC3CCC2N(C(=O)NC2CC2c2ccccc2)C3)n1 (stereo not shown) [Example 16] | 30 |
| CCc1noc(C2CC3CC2N(C(=O)NC2CC2c2ccccc2)C3)n1 (stereo not shown) [Example 17] | 48 |
| O=C(NC1CC1c1ccccc1)N1CC2CCC1C(c1nc(C(c3ccccc3)c3ccccc3)no1)C2 (stereo not shown) [Example 18] | 6 |
| Cn1cc(-c2noc([C@@H]3C[C@H]4CC[C@H]3CN4C(=O)NC3CC3c3ccccc3)n2)c2ccccc21 (stereo partly shown) [Example 19] | 4 |
| Cn1cc(-c2noc(C3(C)CC4CCC3N(C(=O)NC3CC3c3ccccc3)C4)n2)c2ccccc21 (stereo not shown) [Example 20] | 8 |

Reference: patent publication US20110003849A1, “SOLUBLE EPOXIDE HYDROLASE INHIBITORS, COMPOSITIONS CONTAINING SUCH COMPOUNDS AND METHODS OF TREATMENT” (priority 2008, published 2011)
